# Source: ChEMBL document CHEMBL3045059, “Efficacy of ketoenols on insecticide resistant field populations of two-spotted spider mite Tetranychus urticae and sweet potato whitefly Bemisia tabaci from Greece” (2012)
# Columns and labels:
# Format in all cases: functional
# [1] = system: Tetranychus urticae; experiment: Acaricidal activity against adult Tetranychus urticae (two-spotted spider mite) greenhouse population TU7 in bean leaves assessed as mortality applied at 1 bar pressure measured after 48 hr; conditions: TU7, 48 h
# [2] = system: Tetranychus urticae; experiment: Acaricidal activity against adult Tetranychus urticae (two-spotted spider mite) greenhouse population TU11 in bean leaves assessed as mortality applied at 1 bar pressure measured after 48 hr; conditions: TU11, 48 h
# [3] = system: Tetranychus urticae; experiment: Acaricidal activity against adult Tetranychus urticae (two-spotted spider mite) greenhouse population TU9 in bean leaves assessed as mortality applied at 1 bar pressure measured after 48 hr; conditions: TU9, 48 h
# [4] = system: Tetranychus urticae; experiment: Acaricidal activity against adult Tetranychus urticae (two-spotted spider mite) field population TU4 in bean leaves assessed as mortality applied at 1 bar pressure measured after 48 hr; conditions: TU4, 48 h
# [5] = system: Tetranychus urticae; experiment: Acaricidal activity against adult Tetranychus urticae (two-spotted spider mite) greenhouse population TU3 in bean leaves assessed as mortality applied at 1 bar pressure measured after 48 hr; conditions: TU3, 48 h
# [6] = system: Tetranychus urticae; experiment: Acaricidal activity against adult Tetranychus urticae (two-spotted spider mite) field population TU12 in bean leaves assessed as mortality applied at 1 bar pressure measured after 48 hr; conditions: TU12, 48 h
# [7] = system: Tetranychus urticae; experiment: Acaricidal activity against adult Tetranychus urticae (two-spotted spider mite) greenhouse population TU5 in bean leaves assessed as mortality applied at 1 bar pressure measured after 48 hr; conditions: TU5, 48 h
# [8] = system: Tetranychus urticae; experiment: Acaricidal activity against adult Tetranychus urticae (two-spotted spider mite) field population TU2 in bean leaves assessed as mortality applied at 1 bar pressure measured after 48 hr; conditions: TU2, 48 h
# [9] = system: Tetranychus urticae; experiment: Acaricidal activity against adult Tetranychus urticae (two-spotted spider mite) field population TU6 in bean leaves assessed as mortality applied at 1 bar pressure measured after 48 hr; conditions: TU6, 48 h
# [10] = system: Tetranychus urticae; experiment: Acaricidal activity against adult Tetranychus urticae (two-spotted spider mite) greenhouse population TU1 in bean leaves assessed as mortality applied at 1 bar pressure measured after 48 hr; conditions: TU1, 48 h
# [11] = system: Tetranychus urticae; experiment: Acaricidal activity against adult Tetranychus urticae (two-spotted spider mite) laboratory strain GSS in bean leaves assessed as mortality applied at 1 bar pressure measured after 48 hr
# [12] = system: Tetranychus urticae; experiment: Acaricidal activity against adult Tetranychus urticae (two-spotted spider mite) laboratory strain SAMB in bean leaves assessed as mortality applied at 1 bar pressure measured after 48 hr
# [13] = system: Tetranychus urticae; experiment: Resistance ratio, ratio of LC50 for adult Tetranychus urticae (two-spotted spider mite) greenhouse population TU7 to LC50 for adult Tetranychus urticae laboratory strain SAMB measured after 48 hr
# [14] = system: Tetranychus urticae; experiment: Resistance ratio, ratio of LC50 for adult Tetranychus urticae (two-spotted spider mite) greenhouse population TU11 to LC50 for adult Tetranychus urticae laboratory strain SAMB measured after 48 hr
# [15] = system: Tetranychus urticae; experiment: Resistance ratio, ratio of LC50 for adult Tetranychus urticae (two-spotted spider mite) greenhouse population TU9 to LC50 for adult Tetranychus urticae laboratory strain SAMB measured after 48 hr
# [16] = system: Tetranychus urticae; experiment: Resistance ratio, ratio of LC50 for adult Tetranychus urticae (two-spotted spider mite) field population TU4 to LC50 for adult Tetranychus urticae laboratory strain SAMB measured after 48 hr
# [17] = system: Tetranychus urticae; experiment: Resistance ratio, ratio of LC50 for adult Tetranychus urticae (two-spotted spider mite) greenhouse population TU3 to LC50 for adult Tetranychus urticae laboratory strain SAMB measured after 48 hr
# [18] = system: Tetranychus urticae; experiment: Resistance ratio, ratio of LC50 for adult Tetranychus urticae (two-spotted spider mite) field population TU12 to LC50 for adult Tetranychus urticae laboratory strain SAMB measured after 48 hr
# [19] = system: Tetranychus urticae; experiment: Resistance ratio, ratio of LC50 for adult Tetranychus urticae (two-spotted spider mite) greenhouse population TU5 to LC50 for adult Tetranychus urticae laboratory strain SAMB measured after 48 hr
# [20] = system: Tetranychus urticae; experiment: Resistance ratio, ratio of LC50 for adult Tetranychus urticae (two-spotted spider mite) field population TU2 to LC50 for adult Tetranychus urticae laboratory strain SAMB measured after 48 hr
# [21] = system: Tetranychus urticae; experiment: Resistance ratio, ratio of LC50 for adult Tetranychus urticae (two-spotted spider mite) greenhouse population TU1 to LC50 for adult Tetranychus urticae laboratory strain SAMB measured after 48 hr
# [22] = system: Tetranychus urticae; experiment: Resistance ratio, ratio of LC50 for adult Tetranychus urticae (two-spotted spider mite) field population TU6 to LC50 for adult Tetranychus urticae laboratory strain SAMB measured after 48 hr
# [23] = system: Tetranychus urticae; experiment: Resistance ratio, ratio of LC50 for adult Tetranychus urticae (two-spotted spider mite) laboratory strain GSS to LC50 for adult Tetranychus urticae laboratory strain SAMB measured after 48 hr
# [24] = system: Tetranychus urticae; experiment: Acaricidal activity against adult Tetranychus urticae (two-spotted spider mite) field population TU6 in bean leaves assessed as mortality applied at 1 bar pressure measured after 24 hr; conditions: TU6, 24 h
# [25] = system: Tetranychus urticae; experiment: Acaricidal activity against adult Tetranychus urticae (two-spotted spider mite) laboratory strain GSS in bean leaves assessed as mortality applied at 1 bar pressure measured after 24 hr
# [26] = system: Tetranychus urticae; experiment: Acaricidal activity against adult Tetranychus urticae (two-spotted spider mite) laboratory strain SAMB in bean leaves assessed as mortality applied at 1 bar pressure measured after 24 hr
# [27] = system: Tetranychus urticae; experiment: Resistance ratio, ratio of LC50 for adult Tetranychus urticae (two-spotted spider mite) greenhouse population TU7 to LC50 for adult Tetranychus urticae laboratory strain SAMB measured after 24 hr
# [28] = system: Tetranychus urticae; experiment: Resistance ratio, ratio of LC50 for adult Tetranychus urticae (two-spotted spider mite) greenhouse population TU11 to LC50 for adult Tetranychus urticae laboratory strain SAMB measured after 24 hr
# [29] = system: Tetranychus urticae; experiment: Resistance ratio, ratio of LC50 for adult Tetranychus urticae (two-spotted spider mite) greenhouse population TU9 to LC50 for adult Tetranychus urticae laboratory strain SAMB measured after 24 hr
# [30] = system: Tetranychus urticae; experiment: Resistance ratio, ratio of LC50 for adult Tetranychus urticae (two-spotted spider mite) field population TU4 to LC50 for adult Tetranychus urticae laboratory strain SAMB measured after 24 hr
# [31] = system: Tetranychus urticae; experiment: Resistance ratio, ratio of LC50 for adult Tetranychus urticae (two-spotted spider mite) greenhouse population TU3 to LC50 for adult Tetranychus urticae laboratory strain SAMB measured after 24 hr
# [32] = system: Tetranychus urticae; experiment: Resistance ratio, ratio of LC50 for adult Tetranychus urticae (two-spotted spider mite) field population TU12 to LC50 for adult Tetranychus urticae laboratory strain SAMB measured after 24 hr
# [33] = system: Tetranychus urticae; experiment: Resistance ratio, ratio of LC50 for adult Tetranychus urticae (two-spotted spider mite) greenhouse population TU5 to LC50 for adult Tetranychus urticae laboratory strain SAMB measured after 24 hr
# [34] = system: Tetranychus urticae; experiment: Resistance ratio, ratio of LC50 for adult Tetranychus urticae (two-spotted spider mite) field population TU2 to LC50 for adult Tetranychus urticae laboratory strain SAMB measured after 24 hr
# [35] = system: Tetranychus urticae; experiment: Resistance ratio, ratio of LC50 for adult Tetranychus urticae (two-spotted spider mite) greenhouse population TU1 to LC50 for adult Tetranychus urticae laboratory strain SAMB measured after 24 hr
# [36] = system: Tetranychus urticae; experiment: Resistance ratio, ratio of LC50 for adult Tetranychus urticae (two-spotted spider mite) field population TU6 to LC50 for adult Tetranychus urticae laboratory strain SAMB measured after 24 hr
# [37] = system: Tetranychus urticae; experiment: Resistance ratio, ratio of LC50 for adult Tetranychus urticae (two-spotted spider mite) laboratory strain GSS to LC50 for adult Tetranychus urticae laboratory strain SAMB measured after 24 hr
# [38] = system: Tetranychus urticae; experiment: Acaricidal activity against adult Tetranychus urticae (two-spotted spider mite) greenhouse population TU7 in bean leaves assessed as mortality applied at 1 bar pressure measured after 24 hr; conditions: TU7, 24 h
# [39] = system: Tetranychus urticae; experiment: Acaricidal activity against adult Tetranychus urticae (two-spotted spider mite) greenhouse population TU11 in bean leaves assessed as mortality applied at 1 bar pressure measured after 24 hr; conditions: TU11, 24 h
# [40] = system: Tetranychus urticae; experiment: Acaricidal activity against adult Tetranychus urticae (two-spotted spider mite) greenhouse population TU9 in bean leaves assessed as mortality applied at 1 bar pressure measured after 24 hr; conditions: TU9, 24 h
# [41] = system: Tetranychus urticae; experiment: Acaricidal activity against adult Tetranychus urticae (two-spotted spider mite) field population TU4 in bean leaves assessed as mortality applied at 1 bar pressure measured after 24 hr; conditions: TU4, 24 h
# [42] = system: Tetranychus urticae; experiment: Acaricidal activity against adult Tetranychus urticae (two-spotted spider mite) greenhouse population TU3 in bean leaves assessed as mortality applied at 1 bar pressure measured after 24 hr; conditions: TU3, 24 h
# [43] = system: Tetranychus urticae; experiment: Acaricidal activity against adult Tetranychus urticae (two-spotted spider mite) field population TU12 in bean leaves assessed as mortality applied at 1 bar pressure measured after 24 hr; conditions: TU12, 24 h
# [44] = system: Tetranychus urticae; experiment: Acaricidal activity against adult Tetranychus urticae (two-spotted spider mite) greenhouse population TU5 in bean leaves assessed as mortality applied at 1 bar pressure measured after 24 hr; conditions: TU5, 24 h
# [45] = system: Tetranychus urticae; experiment: Acaricidal activity against adult Tetranychus urticae (two-spotted spider mite) field population TU2 in bean leaves assessed as mortality applied at 1 bar pressure measured after 24 hr; conditions: TU2, 24 h
# [46] = system: Tetranychus urticae; experiment: Acaricidal activity against adult Tetranychus urticae (two-spotted spider mite) greenhouse population TU1 in bean leaves assessed as mortality applied at 1 bar pressure measured after 24 hr; conditions: TU1, 24 h
compound,measurement,setting,value
Cc1c(COC(=O)[C@@H]2[C@H](/C=C(\Cl)C(F)(F)F)C2(C)C)cccc1-c1ccccc1 (relative stereo) [BIFENTHRIN],LC50,[1],75100 µg/mL
same,LC50,[2],168 µg/mL
same,LC50,[3],112 µg/mL
same,LC50,[4],3140 µg/mL
same,LC50,[5],741 µg/mL
same,LC50,[6],85 µg/mL
same,LC50,[7],45 µg/mL
same,LC50,[8],42 µg/mL
same,LC50,[9],8.5 µg/mL
same,LC50,[10],115 µg/mL
same,LC50,[11],13 µg/mL
same,LC50,[12],8.9 µg/mL
same,RatioLC50,[13],8413
same,RatioLC50,[14],19
same,RatioLC50,[15],12
same,RatioLC50,[16],351
same,RatioLC50,[17],83
same,RatioLC50,[18],9.5
same,RatioLC50,[19],5
same,RatioLC50,[20],4.7
same,RatioLC50,[21],13
same,RatioLC50,[22],0.9
same,RatioLC50,[23],1.5
CC(C)(C)c1ccc(CCOc2ncnc3ccccc23)cc1 [FENAZAQUIN],LC50,[24],29 µg/mL
same,LC50,[25],17 µg/mL
same,LC50,[26],13 µg/mL
same,RatioLC50,[27],33
same,RatioLC50,[28],42
same,RatioLC50,[29],23
same,RatioLC50,[30],4.1
same,RatioLC50,[31],5.7
same,RatioLC50,[32],15
same,RatioLC50,[33],3.7
same,RatioLC50,[34],7.3
same,RatioLC50,[35],13
same,RatioLC50,[36],2.2
same,RatioLC50,[37],1.3
same,LC50,[38],447 µg/mL
same,LC50,[39],562 µg/mL
same,LC50,[40],316 µg/mL
same,LC50,[41],55 µg/mL
same,LC50,[42],77 µg/mL
same,LC50,[43],215 µg/mL
same,LC50,[44],49 µg/mL
same,LC50,[45],97 µg/mL
same,LC50,[46],179 µg/mL
CCN(CC)c1nc(C)cc(OP(=S)(OC)OC)n1 [PIRIMIPHOS METHYL],LC50,[1],1330 µg/mL
same,LC50,[2],417 µg/mL
same,LC50,[3],248 µg/mL
same,LC50,[4],98 µg/mL
same,LC50,[5],130 µg/mL
same,LC50,[6],77 µg/mL
same,LC50,[7],204 µg/mL
same,LC50,[8],225 µg/mL
same,LC50,[9],158 µg/mL
same,LC50,[10],248 µg/mL
same,LC50,[11],332 µg/mL
same,LC50,[12],18 µg/mL
same,RatioLC50,[13],74
same,RatioLC50,[14],23
same,RatioLC50,[15],14
same,RatioLC50,[16],5.5
same,RatioLC50,[17],7.3
same,RatioLC50,[18],4.3
same,RatioLC50,[19],11
same,RatioLC50,[20],12
same,RatioLC50,[21],14
same,RatioLC50,[22],8.9
same,RatioLC50,[23],19
CC(C)(C)c1ccc(CSc2cnn(C(C)(C)C)c(=O)c2Cl)cc1 [PYRIDABEN],LC50,[24],16 µg/mL
same,LC50,[25],4.4 µg/mL
same,LC50,[26],6.4 µg/mL
same,RatioLC50,[27],34
same,RatioLC50,[28],39
same,RatioLC50,[29],26
same,RatioLC50,[30],4
same,RatioLC50,[31],18
same,RatioLC50,[32],9.8
same,RatioLC50,[33],5.9
same,RatioLC50,[34],11
same,RatioLC50,[35],4.5
same,RatioLC50,[36],2.6
same,RatioLC50,[37],0.7
same,LC50,[38],221 µg/mL
same,LC50,[39],248 µg/mL
same,LC50,[40],166 µg/mL
same,LC50,[41],26 µg/mL
same,LC50,[42],117 µg/mL
same,LC50,[43],62 µg/mL
same,LC50,[44],38 µg/mL
same,LC50,[45],71 µg/mL
same,LC50,[46],29 µg/mL
